Measured values taken from patent US20240270786A1, “STEROID COMPOUNDS” (Epirium Bio Inc., priority 2022, published 2024).
“And” between values parts separate entries of the source, which are not always exact repeats. Identical values can stand only once.

Legend:
[1] = tested on: PGC-1α expression in C2C12 cells; assay: In vitro PGC-1α expression in C2C12 cells (cell ELISA); assay type: cell-based; settings: 5000 cells/well, OD @ 650 nm, DMSO control = 100
Procedure: Culture conditions: DMEM containing 25 mM glucose with 10% FBS supplementation; grown at 37° C. and 5% CO2.
Drugs: (+)-Epicatechin, AICAR (direct activator of AMPK).
Assay Conditions: C2C12 cells were cultured in DMEM supplemented in 10% FBS upto 80% confluence. The cells were further trypsinized and seeded into a 96 well plate at a density of 5000 cells/well (well volume—100 μL) (Day 0). Following attachment, the cells were allowed to reach 80-90% confluence in the plate (typically 48 hours post seeding) and further differentiated using DMEM+2% Horse Serum (200 μL/well). The media was changed every day or at least every alternate day for 5 days to allow myoblasts to differentiate into myotubes. On day 7 (post seeding), the cells were treated with standards and test compounds for PGC-1 α assay.
PGC-1α assay: For the detection of PGC-1a, the cells were incubated with 0.5 μg/ml primary antibody (Merck, WH0010891M3) in PBS-T containing 5% BSA at 4° C. overnight. The cells were then washed three times with PBS-T for 5 minutes and incubated with 1:1000 dilution secondary antibody (Anti-rabbit IgG, HRP-linked Antibody, Cell Signaling) in PBS-T with 1% BSA for 1 hour at RT. Cells were washed three times with PBS-T for 5 minutes The cells were incubated with 100 μl TMB substrate solution for 30 minutes and the reaction was stopped with 100 μl of 2N H2SO4. […] (For plate optical density calculations, a background correction was taken at 540 nm). The final PGC-1a activation % is average of activation of 6 replicates.

PGC-1α = assay: In vivo PGC-1α expression in liver of LPS-treated mice (ELISA); set-up: species or system C57BL/6 mice; settings: for PGC-1α levels: C57BL/6 mice; for PGC-1α level (%): Control = 100
Procedure: C57BL/6 mice were procured from Vivo Bio Tech Ltd. Male mice were used for the study within an age range of 7 to 8 weeks. Body weight for these mice ranged from 20 g to 25 g. Animals were housed in a group of 6 in individually ventilated cages with temperature of 22±3° C., a relative humidity of 50 to 60%. The bottom of the cages was layered with sterilized corn cob. Animals were provided with gamma irradiated feed and autoclaved drinking water ad-libitum. The IVCs were maintained at an environment controlled (Centrally Air-Conditioned) room at a temperature of 22±3° C., a relative humidity of 50 to 60%, light intensity of 250-300 lux and a 12 hour light-dark cycle and noise intensity of <85 db.
Method of Preparation: LPS was dosed at 3 mg/kg in a dose volume of 10 ml/kg. For this, 0.3 mg/ml of LPS solution (Micronized suspension) was prepared. Butter paper was placed on analytical balance, tarred and LPS was placed on butter paper and its weight was noted down. LPS was transferred to 15 ml falcon tube. Then required amount of normal saline was added to it to make it 0.3 mg/ml. The solution was vortexed properly for 5 minutes and placed on ice. LPS solution was vortexed every time before aspiration and injection.
LPS was dosed at 3 mg/kg. Each test compound was dosed at 10 mg/kg, 2 hour and 15 min post LPS administration.
0.5% CMC was used as a vehicle with a dose volume of 10 ml/kg. An IP route was used for LPS, and a PO route was used for each test compound. Animals were sacrified 24 hours post LPS dosing, and plasma were collected. PGC-1α level was measured in liver samples, and other tissues were stored for future analysis. PGC-1α level was checked using ELISA kit—CUSABIO Mouse PPARGC1A ELISA kit.
Protocol: One day before start of the experiment C57BL/6 Mice (Male, 6-7-week-old) were randomized on the basis of their body weight and were divided into groups. All the cages were assigned the respective group name. Animals inside each cage were marked on the base of the tails with permanent marker to distinguish each animal. Mice were fasted overnight. Next day morning animals were dosed with test item. Group 1 (Control) and Group 2 (LPS) Animals were dosed with vehicle (0.5% CMC). Test items were prepared in 0.5% CMC by trituration in mortar and pestle and addition of CMC drop by drop. 2 hour post test item/vehicle dosing animals were administered with LPS through IP route at 3 mg/kg of body weight. Group 1 (Control) animals were administered with saline. 0.25 hour post LPS administration, animals were again dosed with test item/vehicle. Post dosing, animals were returned to their respective cages and kept until termination of the study. No feed was offered to any group. Animals were provided with water. 24 hour post LPS administration, blood was collected from each animal under influence of mild isoflurane anesthesia through retro-orbital technique. Animals were sacrificed by CO2 asphyxiation technique. Post-termination, animals were dissected and vital organs, liver, brain, skeleton muscle were collected in Eppendorf tubes and flash frozen in liquid nitrogen. Serum was collected from whole blood by centrifuging it at 4° C. at 10,000 RPM and for 10 minutes. (Blood was left for 2 hour for coagulation before centrifugation) After completion of the experiment, all collected samples were stored at −80° C. until analysis.
Assay Methods/Protocol: The mortar was chilled with liquid nitrogen and then the small tissue pieces were grinded in the presence of liquid nitrogen to a fine powder. Immediately after grinding, transferred small amount of tissue powder to a 1.5 ml micro centrifuge tube containing 1.0 ml lysis buffer (RIPA buffer+Protease inhibitor). The samples were then incubated on ice for 2 hours. The samples were vortexed every 15 minutes. The samples were then centrifuged at 13000×g for 15 minutes at 2-8° C. After centrifugation the supernatant was removed carefully and pellet was discarded. […]

[2] = Pharmacokinetics: quantitative determination of compounds in mice plasma; assay type: in vivo, C57BL/6 Mice; settings: 10 mg/kg PO single dose, vehicle 10% NMP
Procedure: C57BL/6 Mice, Age 7-9 weeks, body weight range 20-25 g were used. The mice were fasted overnight. Mice were dosed once a day for a single day at 10 mg/kg, 10 mg/kg. 6 time-points were used for whole blood. 10% NMP was used as a vehicle. 9 animals were used per treatment, with three groups of three animals each. Group 1 had time points at 15 and 60 minutes, Group 2 had time points at 30 and 120 minutes, and Group 3 had time points at 90 and 240 minutes. An Oral (PO) route was used. Plasma and brain samples were collected (brain sample collected at terminal time point). Plasma was collected through the centrifugation of whole blood at 10,000 rpm for 10 minutes at 4° C. Samples were stored at −80° C. until processing.
1.00 mg/mL in 100% MeOH PP vials (prepared at RT yellow light) at 2-8° C. were used as stock solution. 12.22-50000 ng/mL using 80% MeOH PP vials (prepared at RT yellow light) at 2-8° C. were used as working solution. 0.98-4000 ng/mL (prepared at RT yellow light) was used for the curve range. For Compounds 26, 40, and 50, 1.00 mg/mL of Compound 53 in 100% methanol Ria vials (Prepared at RT yellow light) was used as IS stock solution, and 80 ng/mL of Compound 53 in 80% methanol (Prepared at RT yellow light) was used as IS working solution. For Compound 36, 1.00 mg/mL of Compound 47 in 100% methanol Ria vials (Prepared at RT yellow light) was used as IS stock solution, and 80 ng/mL of Compound 47 in 80% methanol (Prepared at RT yellow light) was used as IS working solution. A linear, 1/×2 fit type was used. The injection volume was 10 μL for Compounds 26 and 36, and 5 μL for Compounds 40 and 50. Mobile Phase A was 0.1% Formic Acid in water at room temperature. Mobile Phase B was 100% methanol at room temperature. R0 wash solution was 80% methanol at room temperature. R3 wash solution was IPA/MeOH/ACN/water (1:1:1:1) at room temperature. The column was Agilent Eclipse 50*2.1 mm 1.8 μm and the instrument was Shimadzu LC-40 UPLC and AB Sciez 6500+ with LCMS002.
Using a pipette, 25 μL of each sample were aliquoted (calibration curve sample, QC samples and blank matrix) to labeled 1.5 ml eppendorf. Using a pipette, 5.0 μL of IS of conc. 80 ng (Cocktail IS) was aliquoted to each standards and samples except Blank. All tubes were mixed on a multi-tube vortex for approximately 30 seconds. 50 μL of 10 mM Sodium bi-carbonate were added. 1 ml of tert-butyl methyl ether (TBME) was added. All tubes were mixed on a multi-tube vortex for approximately 5 minutes then centrifuged for 10 min at 5,000 rpm for Compounds 26 and 36 and at 10,000 rpm for Compounds 40 and 50, 4° C. The sample was kept in methanol containing dry ice for few seconds to freeze the Aqueous layer (flash freeze method). The upper organic layer was poured from the frozen tubes into the labeled 12×75-mm rial vials and evaporated to dryness under nitrogen using Liquid Evaporator (30° C., ˜15 psi, ˜10 mins). 200 μl of reconstitution solution (0.1% Formic Acid: MeOH (20:80 v/v) were added into each tube. Samples were Vortexed for 30 seconds then transferred to amber glass injection vials for injection.
After test item administration, blood samples were collected from individual animals in previously labeled Heparinised blood collection tubes. Blood samples were collected from retro orbital plexus. The time points for collection of blood samples from all the animals are; 0.25, 0.5, 1, 2 and 4 hr. The collected samples were subjected to centrifugation @ 10,000 rpm for 10 minutes at 40° C. for separation of plasma. Thereafter, plasma samples were collected in previously labeled plasma tubes. These were stored at −80° C. until analysis.

[3] = LPS 3 mg/Kg IP, test compound 10 mg/kg PO BID, liver, 24 hours post LPS
[4] = LPS 0.25 + 0.5 + 1 mg/kg, test compound 10 mg/kg

SMILES | % Activity (PGC-1α expression) ([1]; 1 mM) | PGC-1α levels (PGC-1α; [3]) | PGC-1α level (%) (PGC-1α; [3]) | PGC-1α level (PGC-1α; [4]) [pg/mL] | PGC-1α level (%) (PGC-1α; [4]) | T½ [2] [min] | AUC(0-inf) ([2]; C57BL/6, mouse) [ng·h/mL] | AUC(0-t) ([2]; C57BL/6, mouse) [ng·h/mL] | Cmax ([2]; C57BL/6, mouse) [ng/mL] | Tmax ([2]; C57BL/6, mouse) [min] | % Activity (PGC-1α expression) ([1]; 0.001 nM)
NC(=O)c1ncn([C@@H]2O[C@H](CO)[C@@H](O)[C@H]2O)c1N [AICAR, 5-aminoimidazole-4-carboxamide-1-β-D-ribofuranoside] | 148% and 140% and 130% and 128% | – | – | – | – | – | – | – | – | – | –
CN(C)C(=O)[C@H]1CCC2C3CCC4=CC(=O)N(C)CC[C@]4(C)C3[C@@H](O)C[C@@]21C (stereo partly drawn) [Compound 50, (5aR,6S,7aS)-6-hydroxy-N,N,3,5a,7a-pentamethyl-2-oxo-2,3,4,5,5a,5b,6,7,7a,8,9,10,10a,10b,11,12-hexadecahydrocyclopenta[5,6]naphtho[1,2-d]azepine-8-carboxamide] | – | 38684 pg/mL and 24206 pg/mL | 110% and 80% | 2632 | 40 | 25.4 | 2540 | 2450 | 2900 | 15 | –
Oc1cc(O)c2c(c1)O[C@H](c1ccc(O)c(O)c1)[C@H](O)C2 [Epicatechin, (+)-Epicatechin, reference compound] | – | 33330 pg/mL and 31729 pg/mL and 21967 pg/mL | 63% and 90% and 72% | 3247 | 49 | – | – | – | – | – | 129% and 123% and 120% and 122% and 125%
